Consider 28 compounds from US20260234136A1, “ISOXAZOLIDINES AS RIPK1 INHIBITORS AND USE THEREOF” (GENZYME CORPORATION, priority 2023, published 2026).

Molecules are shown by their SMILES. Values after ≈ are worked out from the molar mass of the structure shown. A value given as a limit tells only on which side of the number the result lay.

A word on the IC50: it is the midpoint of a concentration-inhibition curve. Broadly, the solubility is the dissolved amount per volume that the medium holds. Read a high solubility as a readily soluble substance.

The test system of one series is U937 cells. In words: Cellular assay in U937 cells to measure the activity of RIPK1-inhibitors on cell death (necroptosis). The series is classed as cell-based. To be noted: Homo sapiens, U-937, 50 μM zVAD.fmk and 100 ng/ml recombinant human TNFα, overnight (18 to 24 hrs), MTS readout.
The next series is described as follows: physchem. Particulars: 50 mM phosphate buffer, 25 °C, pH 7.4, aqueous buffer, thermodynamic from solid.

Regarding `Cc1ccc([C@@H]2CCON2C(=O)C2CCN(c3cc(-n4ccnc4C)ncn3)CC23CC3)cn1` (mixture of isomers) [Example 33, [5-[6-(2-methylimidazol-1-yl)pyrimidin-4-yl]-5-azaspiro[2.5]octan-8-yl]-[(3S)-3-(6-methylpyridin-3-yl)-1,2-oxazolidin-2-yl]methanone], the IC50 with U937 cells stood at 16.4 nM. This compound also displayed a solubility at 16 h in the series “physchem” greater than 1090 µM.

As for `Cc1ccc([C@@H]2CCON2C(=O)C2CCN(c3cc(-c4ccnn4C)ncn3)CC23CC3)cn1` (mixture of isomers) [Example 34, [5-[6-(2-methylpyrazol-3-yl)pyrimidin-4-yl]-5-azaspiro[2.5]octan-8-yl]-[(3S)-3-(6-methylpyridin-3-yl)-1,2-oxazolidin-2-yl]methanone], the IC50 in the series on U937 cells was determined as 52.9 nM. This compound also gave a solubility at 16 h in “physchem” greater than 1090 µM.

For `Cc1ccc([C@@H]2CCON2C(=O)[C@@H]2CCN(c3cc(-n4ccnc4C)ncn3)CC23CC3)cn1` (single isomer, unassigned) [Example 78], the IC50 with U937 cells amounted to 32 nM. Besides, the solubility at 16 h in “physchem” was greater than 1090 µM.

Regarding `O=C1OCCN1c1ccnc(N2CCC(C(=O)N3OCC[C@H]3c3cnccn3)CC2)n1` [Example 2, (S)-3-(2-(4-(3-(pyrazin-2-yl)isoxazolidine-2-carbonyl)piperidin-1-yl)pyrimidin-4-yl)oxazolidin-2-one], the IC50 in the series on U937 cells turned out to be 50 nM. In “physchem”, this compound came in with a solubility at 16 h greater than 1180 µM.

Consider `O=C1CCCN1c1nc(N2CCC(C(=O)N3OCC[C@H]3c3cnccn3)CC2)ncc1F` [Example 6, 1-[5-fluoro-2-[4-[(3S)-3-pyrazin-2-ylisoxazolidine-2-carbonyl]-1-piperidyl]pyrimidin-4-yl]pyrrolidin-2-one], for which, in the series with U937 cells, the IC50 amounted to 8 nM. The solubility at 16 h in “physchem” was greater than 1130 µM.

Take `Cc1ccc([C@@H]2CCON2C(=O)C2CCN(c3ncnc(-c4ccnn4C)n3)CC2)cn1` [Example 8]: the IC50 with U937 cells came to 3 nM. The solubility at 16 h in the series “physchem” worked out at 328 µM (≈ 142 µg/mL).

Consider `Cc1cnn(-c2ccnc(N3CCC(C(=O)N4OCC[C@H]4c4ccc(C)nc4)CC3)n2)c1` [Example 9, [1-[4-(4-methylpyrazol-1-yl)pyrimidin-2-yl]-4-piperidyl]-[(3S)-3-(6-methyl-3-pyridyl)isoxazolidin-2-yl]methanone], for which the IC50 in the series on U937 cells was found to be 29 nM. The same compound gave a solubility at 16 h in “physchem” of 173 µM (≈ 74.9 µg/mL).

As for `O=C(C1CCN(c2nccc(-c3ncco3)n2)CC1)N1OCC[C@H]1c1cnccn1` [Example 11, [1-(4-oxazol-2-ylpyrimidin-2-yl)-4-piperidyl]-[(3S)-3-pyrazin-2-ylisoxazolidin-2-yl]methanone], the IC50 with U937 cells is 10 nM. Also, the solubility at 16 h in “physchem” is greater than 2780 µM.

On to `O=C(C1CCN(c2ncc(F)c(-c3ncco3)n2)CC1)N1OCC[C@H]1c1cnccn1` [Example 12, [1-(5-fluoro-4-oxazol-2-yl-pyrimidin-2-yl)-4-piperidyl]-[(3S)-3-pyrazin-2-ylisoxazolidin-2-yl]methanone], for which, in the series with U937 cells, the IC50 turned out to be 1 nM. The same compound registered a solubility at 16 h in “physchem” greater than 1180 µM.

Consider `O=C(C1CCN(c2ncnc(-c3nccs3)n2)CC1)N1OCC[C@H]1c1cnccn1` [Example 14, [(3S)-3-pyrazin-2-ylisoxazolidin-2-yl]-[1-(4-thiazol-2-yl-1,3,5-triazin-2-yl)-4-piperidyl]methanone], for which the IC50 in the series on U937 cells turned out to be 9 nM. In “physchem”, this compound came in with a solubility at 16 h greater than 1180 µM.

Consider `Cc1cnn(-c2nccc(N3CCC(C(=O)N4OCC[C@H]4c4ccc(C)nc4)CC3)n2)c1` [Example 16, [1-[2-(4-methylpyrazol-1-yl)pyrimidin-4-yl]-4-piperidyl]-[(3S)-3-(6-methyl-3-pyridyl)isoxazolidin-2-yl]methanone], for which, in the series on U937 cells, the IC50 is 53 nM. The solubility at 16 h in the series “physchem” was 169 µM (≈ 73.2 µg/mL).

On to `Cc1ncc([C@@H]2CCON2C(=O)C2CCN(c3nccc(-n4ccnc4C)n3)CC2)cc1F` [Example 20, [(3S)-3-(5-fluoro-6-methyl-3-pyridyl)isoxazolidin-2-yl]-[1-[4-(2-methylimidazol-1-yl)pyrimidin-2-yl]-4-piperidyl]methanone], for which the IC50 in the series on U937 cells is 1 nM. The compound further gave a solubility at 16 h in the series “physchem” of 21.4 µM (≈ 9.66 µg/mL).

For the compound `Cc1ncc([C@@H]2CCON2C(=O)C2CCN(c3cc(-n4ccnc4C)ncn3)CC2)cc1F` [Example 21, [(3S)-3-(5-fluoro-6-methyl-3-pyridyl)isoxazolidin-2-yl]-[1-[6-(2-methylimidazol-1-yl)pyrimidin-4-yl]-4-piperidyl]methanone], in the series with U937 cells, the IC50 was found to be 73 nM. The compound further registered a solubility at 16 h in the series “physchem” greater than 1110 µM.

For `Cc1nc([C@@H]2CCON2C(=O)C2CCN(c3ncnc(-n4ccnc4C)n3)CC2)cs1` [Example 23, [1-[4-(2-methylimidazol-1-yl)-1,3,5-triazin-2-yl]-4-piperidyl]-[(3S)-3-(2-methylthiazol-4-yl)isoxazolidin-2-yl]methanone], the IC50 with U937 cells was determined as 1 nM. This compound yielded a solubility at 16 h in “physchem” greater than 1140 µM.

With `Cn1nccc1-c1nccc(N2CCC(C(=O)N3OCC[C@H]3c3cnccn3)CC2)n1` [Example 24, [1-[2-(2-methylpyrazol-3-yl)pyrimidin-4-yl]-4-piperidyl]-[(3S)-3-pyrazin-2-ylisoxazolidin-2-yl]methanone], in the series with U937 cells, the IC50 is 9 nM. This compound gave a solubility at 16 h in “physchem” greater than 1190 µM.

In the case of `O=C(C1CCN(c2nc(-c3cncnc3)ncc2F)CC1)N1OCC[C@H]1c1cnccn1` [Example 25, [1-(5-fluoro-2-pyrimidin-5-yl-pyrimidin-4-yl)-4-piperidyl]-[(3S)-3-pyrazin-2-ylisoxazolidin-2-yl]methanone], the IC50 in the series on U937 cells was 15 nM. This compound also displayed a solubility at 16 h in the series “physchem” of 69.2 µM (≈ 30.2 µg/mL).

In the case of `Cc1nccn1-c1nccc(N2CCC(C(=O)N3OCC[C@H]3c3cnccn3)CC2)n1` [Example 29, (S)-(1-(2-(2-methyl-1H-imidazol-1-yl)pyrimidin-4-yl)piperidin-4-yl)(3-(pyrazin-2-yl)isoxazolidin-2-yl)methanone], the IC50 in the series on U937 cells turned out to be 6 nM. In addition, the solubility at 16 h in the series “physchem” was greater than 1190 µM.

In the case of `Cc1nccn1-c1ccnc(N2CCC(C(=O)N3OCC[C@H]3c3cnccn3)CC2)n1` [Example 30, (S)-(1-(4-(2-methyl-1H-imidazol-1-yl)pyrimidin-2-yl)piperidin-4-yl)(3-(pyrazin-2-yl)isoxazolidin-2-yl)methanone], the IC50 in the series with U937 cells was found to be 3 nM. The same compound had a solubility at 16 h in the series “physchem” greater than 1190 µM.

As for `Cc1nccn1-c1cc(N2CCC(C(=O)N3OCC[C@H]3c3cnccn3)CC2)ncn1` [Example 31, (S)-(1-(6-(2-methyl-1H-imidazol-1-yl)pyrimidin-4-yl)piperidin-4-yl)(3-(pyrazin-2-yl)isoxazolidin-2-yl)methanone], the IC50 in the series on U937 cells worked out at 32 nM. The solubility at 16 h in “physchem” is greater than 1190 µM.

For `Cc1ccc([C@@H]2CCON2C(=O)C2CCN(c3nccc(-c4ncco4)n3)CC2)cn1` [Example 37, [(3S)-3-(6-methylpyridin-3-yl)-1,2-oxazolidin-2-yl]-[1-[4-(1,3-oxazol-2-yl)pyrimidin-2-yl]piperidin-4-yl]methanone], the IC50 in the series with U937 cells stood at 41 nM. In the series “physchem”, this compound showed a solubility at 16 h of 34.7 µM (≈ 14.6 µg/mL).

As to `Cc1ccc([C@@H]2CCON2C(=O)C2CCN(c3ncnc(-c4nccs4)n3)CC2)cn1` [Example 38, [(3S)-3-(6-methylpyridin-3-yl)-1,2-oxazolidin-2-yl]-[1-[4-(1,3-thiazol-2-yl)-1,3,5-triazin-2-yl]piperidin-4-yl]methanone], the IC50 in the series with U937 cells worked out at 51 nM. The solubility at 16 h in the series “physchem” stood at 275 µM (≈ 120 µg/mL).

For the compound `Cc1nc([C@@H]2CCON2C(=O)C2CCN(c3cc(-c4ncnn4C)ncn3)CC2)cs1` [Example 40, [(3S)-3-(2-methyl-1,3-thiazol-4-yl)-1,2-oxazolidin-2-yl]-[1-[6-(2-methyl-1,2,4-triazol-3-yl)pyrimidin-4-yl]piperidin-4-yl]methanone], the IC50 in the series on U937 cells amounted to 40 nM. The compound also showed a solubility at 16 h in the series “physchem” of 136 µM (≈ 60 µg/mL).

Regarding `Cc1ncc([C@@H]2CCON2C(=O)[C@@H]2CCN(c3cc(-c4ncnn4C)ncn3)CC23CC3)cc1F` [Example 43, [(3S)-3-(5-fluoro-6-methylpyridin-3-yl)-1,2-oxazolidin-2-yl]-[(8R)-5-[6-(2-methyl-1,2,4-triazol-3-yl)pyrimidin-4-yl]-5-azaspiro[2.5]octan-8-yl]methanone], in the series on U937 cells, the IC50 came to 57 nM. The compound also had a solubility at 16 h in “physchem” greater than 1040 µM.

In the case of `Cc1ccc([C@@H]2CCON2C(=O)[C@@H]2CCN(c3nccc(N4CCCC4=O)n3)CC23CC3)cn1` [Example 44, 1-[2-[(8R)-8-[(3S)-3-(6-methylpyridin-3-yl)-1,2-oxazolidine-2-carbonyl]-5-azaspiro[2.5]octan-5-yl]pyrimidin-4-yl]pyrrolidin-2-one], the IC50 in the series with U937 cells was found to be 25 nM. In the series “physchem”, this compound came in with a solubility at 16 h of 380 µM (≈ 176 µg/mL).

On to `Cc1ncc([C@@H]2CCON2C(=O)C2CCN(c3ncnc(-c4ccnn4C)n3)CC2)cc1F` [Example 45, [(3S)-3-(5-fluoro-6-methylpyridin-3-yl)-1,2-oxazolidin-2-yl]-[1-[4-(2-methylpyrazol-3-yl)-1,3,5-triazin-2-yl]piperidin-4-yl]methanone], for which the IC50 in the series with U937 cells was 1 nM. The compound further displayed a solubility at 16 h in the series “physchem” of 904 µM (≈ 409 µg/mL).

With `O=C1CCCN1c1ccnc(N2CCC(C(=O)N3OCC[C@H]3c3cncc(F)c3)CC2)n1` [Example 46, 1-[2-[4-[(3S)-3-(5-fluoropyridin-3-yl)-1,2-oxazolidine-2-carbonyl]piperidin-1-yl]pyrimidin-4-yl]pyrrolidin-2-one], the IC50 in the series with U937 cells was determined as 18 nM. In addition, the solubility at 16 h in “physchem” is greater than 1140 µM.

Take `O=C1CCCCN1c1ccnc(N2CCC(C(=O)N3OCC[C@H]3c3cnccn3)CC2)n1` [Example 47, 1-[2-[4-[(3S)-3-pyrazin-2-yl-1,2-oxazolidine-2-carbonyl]piperidin-1-yl]pyrimidin-4-yl]piperidin-2-one]: the IC50 in the series with U937 cells worked out at 71 nM. Further, the solubility at 16 h in the series “physchem” was greater than 1140 µM.

For `Cc1ncc([C@@H]2CCON2C(=O)[C@@H]2CCN(c3ncnc(-c4ccnn4C)n3)CC23CC3)cc1F` [Example 48, [(3S)-3-(5-fluoro-6-methylpyridin-3-yl)-1,2-oxazolidin-2-yl]-[(8R)-5-[4-(2-methylpyrazol-3-yl)-1,3,5-triazin-2-yl]-5-azaspiro[2.5]octan-8-yl]methanone], in the series with U937 cells, the IC50 amounted to 3 nM. For the same compound, the solubility at 16 h in “physchem” turned out to be 231 µM (≈ 111 µg/mL).
